From ChEMBL document CHEMBL5532639, “Heterocyclic pyrimidine derivatives as promising antibacterial agents” (Eur J Med Chem, 2023) come the findings set out here.

The test system of assay [1] is Pseudomonas aeruginosa. Kind of assay: Antibacterial activity against Pseudomonas aeruginosa assessed as reduction in bacterial growth incubated for 24 hrs by broth microdilution method. The format is functional. (In broth dilution the organism is exposed to a series of concentrations in liquid medium.)
Assay [2] has as its system Streptococcus pyogenes. Kind of assay: Antibacterial activity against Streptococcus pyogenes assessed as reduction in microbial growth incubated for 24 hrs by broth micro-dilution method. It counts as functional.
For assay [3], the system named is Escherichia coli. Kind of assay: Antibacterial activity against Escherichia coli assessed as reduction in bacterial growth incubated for 16 to 20 hrs by Mueller-Hinton broth based two-fold serial dilution method. To be noted: time 16-20 hrs. The format is functional.
The next assay relates to Klebsiella pneumoniae. Kind of assay: Antibacterial activity against Klebsiella pneumoniae assessed as reduction in bacterial growth incubated for 16 to 20 hrs by Mueller-Hinton broth based two-fold serial dilution method. It counts as functional. The following applies: time 16-20 hrs.
Assay [4] relates to Staphylococcus aureus. Kind of assay: Antibacterial activity against Staphylococcus aureus assessed as reduction in bacterial growth incubated for 16 to 20 hrs by Mueller-Hinton broth based two-fold serial dilution method. It counts as functional. To be noted: time 16-20 hrs.
For a further assay, the system named is Salmonella typhimurium. Kind of assay: Antibacterial activity against Salmonella typhimurium DT104 assessed as bacterial growth inhibition by measuring zone of inhibition at 50 ug/ml by agar cup diffusion assay. It counts as functional, Salmonella enterica subsp. enterica serovar Typhimurium. To be noted: Salmonella enterica, read-out: IZ.
Assay [5] concerns Bacillus subtilis. Nature of the assay: Antibacterial activity against Bacillus subtilis assessed as bacterial growth inhibition by measuring zone of inhibition at 50 ug/ml by agar cup diffusion assay. It counts as functional. The following applies: read-out: IZ.
Assay [6] concerns Staphylococcus aureus. Kind of assay: Antibacterial activity against Staphylococcus aureus assessed as bacterial growth inhibition by measuring zone of inhibition at 50 ug/ml by agar cup diffusion assay. The format is functional. To be noted: read-out: IZ.
The subject of assay [7] is Escherichia coli. Kind of assay: Antibacterial activity against Escherichia coli assessed as bacterial growth inhibition by measuring zone of inhibition at 50 ug/ml by agar cup diffusion assay. It counts as functional. The following applies: read-out: IZ.
In assay [8] the test system is Staphylococcus aureus. Kind of assay: Antibacterial activity against Staphylococcus aureus assessed as inhibition of bacterial growth incubated for 4 to 20 hrs by resazurin based microplate reader analysis. It counts as functional. The following applies: time 4-20 hrs.
For assay [9], the system named is Escherichia coli. Kind of assay: Antibacterial activity against Escherichia coli assessed as inhibition of bacterial growth incubated for 4 to 20 hrs by resazurin based microplate reader analysis. It counts as functional. The following applies: time 4-20 hrs. On the technique in general: The colour change of resazurin is a common sign of viable cells or microbes.

For assay [10], the system named is Bacillus subtilis. Nature of the assay: Antibacterial activity against Bacillus subtilis assessed as inhibition of bacterial growth incubated for 4 to 20 hrs by resazurin based microplate reader analysis. To be noted: time 4-20 hrs. The format is functional.
The subject of assay [11] is Pseudomonas aeruginosa. Kind of assay: Antibacterial activity against Pseudomonas aeruginosa assessed as inhibition of bacterial growth incubated for 4 to 20 hrs by resazurin based microplate reader analysis. The format is functional. To be noted: time 4-20 hrs.
In assay [12] the test system is Escherichia coli. Kind of assay: Antibacterial activity against Escherichia coli assessed as zone of inhibition at 50 microg/ml by cup plate analysis. It counts as functional. The following applies: read-out: IZ.
The subject of assay [13] is Bacillus subtilis. Nature of the assay: Antibacterial activity against Bacillus subtilis assessed as zone of inhibition at 50 microg/ml by cup plate analysis. The format is functional. The following applies: read-out: IZ.
A further assay concerns Proteus vulgaris. Nature of the assay: Antibacterial activity against Proteus vulgaris assessed as zone of inhibition at 50 microg/ml by cup plate analysis. It counts as functional. The following applies: read-out: IZ.
The next assay deals with Bacillus pumilus. Kind of assay: Antibacterial activity against Bacillus pumilus assessed as zone of inhibition at 50 microg/ml by cup plate analysis. The format is functional. To be noted: read-out: IZ.
Assay [14] relates to Escherichia coli. Kind of assay: Antibacterial activity against Escherichia coli assessed as bacterial growth inhibition incubated for 18 hrs by CLSI protocol based Mueller-Hinton broth assay. The format is functional.
Assay [15] concerns Pseudomonas aeruginosa. Kind of assay: Antibacterial activity against Pseudomonas aeruginosa assessed as reduction in bacterial growth by broth microdilution method. It counts as functional.
Assay [16] has as its system Streptococcus pyogenes. Kind of assay: Antibacterial activity against Streptococcus pyogenes assessed as reduction in microbial growth by CLSI based broth microdilution method. The format is functional.
Assay [17] relates to Staphylococcus aureus. Kind of assay: Antibacterial activity against Staphylococcus aureus assessed as reduction in microbial growth by CLSI based broth microdilution method. It counts as functional.
Assay [18] deals with Arcanobacterium haemolyticum. Nature of the assay: Antibacterial activity against Arcanobacterium haemolyticum. The format is functional.
For assay [19], the system named is Corynebacterium glutamicum. Kind of assay: Antibacterial activity against Corynebacterium glutamicum. The format is functional.
In the next assay the test system is Alcaligenes faecalis. Nature of the assay: Antibacterial activity against Alcaligenes faecalis. The format is functional.
The subject of assay [20] is Staphylococcus epidermidis. Nature of the assay: Antibacterial activity against Staphylococcus epidermidis assessed as reduction in microbial growth after 24 hrs by CLSI based microdilution method. It counts as functional.
In another assay the test system is Moraxella catarrhalis. Kind of assay: Antibacterial activity against Moraxella catarrhalis assessed as reduction in bacterial growth by broth microdilution method. The format is functional.
The test system of a further assay is Corynebacterium xerosis. Nature of the assay: Antibacterial activity against Corynebacterium xerosis. The format is functional.
The next assay concerns Staphylococcus xylosus. Nature of the assay: Antibacterial activity against Staphylococcus xylosus assessed as reduction in bacterial growth. It counts as functional.
In assay [21] the test system is Micrococcus luteus. Nature of the assay: Antibacterial activity against Micrococcus luteus assessed as bacterial growth inhibition by paper disc diffusion assay. It counts as functional. For orientation: Agar diffusion results depend on both activity and mobility in agar.
For assay [22], the system named is Micrococcus luteus. Kind of assay: Antibacterial activity against Micrococcus luteus assessed as reduction in microbial growth. The format is functional.
Assay [23] deals with Staphylococcus epidermidis. Nature of the assay: Antibacterial activity against Staphylococcus epidermidis assessed as reduction in bacterial growth measured after 24 hrs by broth microdilution method. The format is functional.
A further assay concerns Micrococcus sp. Nature of the assay: Antibacterial activity against Micrococcus sp. It counts as functional.
The subject of a further assay is Acinetobacter sp. Kind of assay: Antibacterial activity against Acinetobacter sp. It counts as functional.
For a further assay, the system named is Staphylococcus hominis. Nature of the assay: Antibacterial activity against Staphylococcus hominis. The format is functional.
For the next assay, the system named is Corynebacterium sp. Kind of assay: Antibacterial activity against Corynebacterium sp. The format is functional.
Assay [24] concerns Staphylococcus haemolyticus. Nature of the assay: Antibacterial activity against Staphylococcus haemolyticus clinical isolates assessed as bacterial growth inhibition measured after 16 to 24 hrs by broth microdilution assay. The format is functional. To be noted: time 16-24 hrs.
Assay [25] relates to Corynebacterium glutamicum. Nature of the assay: Antibacterial activity against Corynebacterium glutamicum ATCC 13032 cultured in MHB medium assessed as no bacterial growth incubated at 20 degC for 24 hrs by microdilution susceptibility test. The format is functional.
A further assay concerns Staphylococcus cohnii. Nature of the assay: Antibacterial activity against Staphylococcus cohnii. It counts as functional.

SMILES strings stand for the structures. In brackets after ≈: the same amount, converted by molar mass. Bounds are passed on as bounds.

By MIC is commonly meant the lowest concentration found to suppress growth.

Regarding `Nc1c(-c2nc3ccccc3s2)c(-c2ccc(Cl)cc2)nc2nc(N/N=C/c3cccc(Cl)c3)[nH]c(=O)c12`, the minimal inhibitory concentration (MIC) came out at 50 µg/mL (≈ 89.5 µM) in the assay on Pseudomonas aeruginosa [1]; 25 µg/mL in the assay on Streptococcus pyogenes [2]; 25 µg/mL (≈ 44.8 µM) in the assay with Escherichia coli [3]; 50 µg/mL (≈ 89.5 µM) in the assay with Klebsiella pneumoniae; 25 µg/mL (≈ 44.8 µM) with Staphylococcus aureus [4].

Turning to `O=C(CSc1nnc(-c2cccnc2N2CCOCC2)o1)Nc1nc(-c2ccc(Cl)cc2)cc(-c2cc(F)c(Cl)cc2Cl)n1`, the zone of inhibition at 50 µg/mL is 9 mm in the assay on Salmonella typhimurium, 10 mm with Bacillus subtilis [5], 13 mm with Staphylococcus aureus [6] and 10 mm in the assay with Escherichia coli [7].

`Cc1nc(NC(=O)c2ccncc2)c2c(C(F)(F)F)cc(-c3ccccc3)nc2n1`: the MIC is 12.5 µg/mL (≈ 30.5 µM) in the assay with Staphylococcus aureus [8], 50 µg/mL (≈ 122 µM) with Escherichia coli [9], 12.5 µg/mL (≈ 30.5 µM) in the assay with Bacillus subtilis [10] and 50 µg/mL (≈ 122 µM) in the assay with Pseudomonas aeruginosa [11].

With `CN(C)c1ccc(-c2cc(-c3ccsc3)nc(N)n2)cc1`, the zone of inhibition at 50 µg/mL in the assay on Escherichia coli [12] was determined as 11 mm; in the assay on Bacillus subtilis [13] it was 15 mm; in the assay on Proteus vulgaris it was 12 mm; in the assay with Bacillus pumilus, 12 mm.

In the case of `O=C(CSc1nnc(-c2cccnc2N2CCOCC2)o1)Nc1nc(-c2ccc(Cl)cc2Cl)cc(-c2cc(F)c(Cl)cc2Cl)n1`, the zone of inhibition at 50 µg/mL came to 12 mm in the assay on Salmonella typhimurium, 9 mm with Bacillus subtilis [5], 13 mm in the assay with Staphylococcus aureus [6] and 12 mm with Escherichia coli [7].

Take `O=[N+]([O-])c1ccc(Nc2nc(Nc3ccc(S(=O)(=O)Nc4ncccn4)cc3)nc(N3CCCCC3)n2)cc1`: the MIC in the assay with Escherichia coli [14] came to 25 µg/mL (≈ 45.6 µM); in the assay with Pseudomonas aeruginosa [15] it was 50 µg/mL (≈ 91.1 µM); in the assay on Streptococcus pyogenes [16] it was 100 µg/mL; in the assay with Staphylococcus aureus [17] it was 100 µg/mL.

On to `Clc1ccc(C(Cc2ccccc2)c2c(Cl)nc(N3CCNCC3)nc2Cl)cc1` (centres undefined), for which the minimum inhibitory concentration (MIC) in assay [18] was 10 µg/mL (≈ 22.3 µM); in assay [19] it was 100 µg/mL (≈ 223 µM); in the assay on Alcaligenes faecalis it was above 500 µg/mL; in assay [20], 100 µg/mL; in the assay with Moraxella catarrhalis, 100 µg/mL (≈ 223 µM); in the assay on Corynebacterium xerosis it was 30 µg/mL (≈ 67 µM). For the same compound, the minimum inhibitory concentration (MIC) with Staphylococcus xylosus came to 100 µg/mL (≈ 223 µM); in the assay with Micrococcus luteus [21], 100 µg/mL (≈ 223 µM); with Micrococcus luteus [22] it was 100 µg/mL; in assay [23], 100 µg/mL (≈ 223 µM); with Micrococcus sp., 100 µg/mL (≈ 223 µM); against Acinetobacter sp. it was 50 µg/mL (≈ 112 µM). Also, the MIC was found to be 100 µg/mL (≈ 223 µM) with Staphylococcus hominis; 100 µg/mL (≈ 223 µM) in the assay with Corynebacterium sp.; 100 µg/mL (≈ 223 µM) in assay [24]; 50 µg/mL (≈ 112 µM) in assay [25]; 100 µg/mL (≈ 223 µM) against Staphylococcus cohnii.

With `Nc1c(-c2nc3ccccc3s2)c(-c2ccc(Cl)cc2)nc2nc(N/N=C/c3cccc([N+](=O)[O-])c3)[nH]c(=O)c12`, the MIC in the assay on Pseudomonas aeruginosa [1] amounted to 12.5 µg/mL (≈ 22 µM); in the assay with Streptococcus pyogenes [2], 12.5 µg/mL; with Escherichia coli [3], 12.5 µg/mL (≈ 22 µM); in the assay on Klebsiella pneumoniae it was 12.5 µg/mL (≈ 22 µM); in the assay with Staphylococcus aureus [4] it was 12.5 µg/mL (≈ 22 µM).

Take `CCCCCCCc1ccc(C(=O)Nc2nc(C)nc3nc(-c4ccccc4)cc(C(F)(F)F)c23)cc1`: the minimal inhibitory concentration (MIC) with Staphylococcus aureus [8] came to 12.5 µg/mL (≈ 24.7 µM); in the assay with Escherichia coli [9], 50 µg/mL (≈ 98.7 µM); in the assay with Bacillus subtilis [10] it was 12.5 µg/mL (≈ 24.7 µM); with Pseudomonas aeruginosa [11], 50 µg/mL (≈ 98.7 µM).

For the compound `Nc1nc(-c2ccsc2)cc(-c2ccc(Cl)cc2Cl)n1`, the zone of inhibition at 50 µg/mL is 12 mm in the assay with Escherichia coli [12], 16 mm in the assay with Bacillus subtilis [13], 15 mm in the assay on Proteus vulgaris and 13 mm in the assay on Bacillus pumilus.

Take `CCOC(=O)c1ccc(Nc2nc(Nc3ccc(S(=O)(=O)Nc4ncccn4)cc3)nc(N3CCCCC3)n2)cc1`: the MIC was determined as 25 µg/mL (≈ 43.4 µM) in the assay on Escherichia coli [14], 25 µg/mL (≈ 43.4 µM) with Pseudomonas aeruginosa [15], 100 µg/mL in the assay with Streptococcus pyogenes [16] and 100 µg/mL with Staphylococcus aureus [17].
